Assays:
[1] = target: 5-hydroxytryptamine receptor 2A (Rattus norvegicus, UniProt P14842); assay: Displacement of [3H]-ketanserin from 5HT2A receptor in rat cortical membrane; format: cell membranes
[2] = target: T1, 5-hydroxytryptamine receptor 1A (Rattus norvegicus, UniProt P19327); assay: Displacement of [3H]-8-OH-DPAT from 5HT1A receptor in rat hippocampus; format: tissue-based
T1 sequence (P19327 whole entry): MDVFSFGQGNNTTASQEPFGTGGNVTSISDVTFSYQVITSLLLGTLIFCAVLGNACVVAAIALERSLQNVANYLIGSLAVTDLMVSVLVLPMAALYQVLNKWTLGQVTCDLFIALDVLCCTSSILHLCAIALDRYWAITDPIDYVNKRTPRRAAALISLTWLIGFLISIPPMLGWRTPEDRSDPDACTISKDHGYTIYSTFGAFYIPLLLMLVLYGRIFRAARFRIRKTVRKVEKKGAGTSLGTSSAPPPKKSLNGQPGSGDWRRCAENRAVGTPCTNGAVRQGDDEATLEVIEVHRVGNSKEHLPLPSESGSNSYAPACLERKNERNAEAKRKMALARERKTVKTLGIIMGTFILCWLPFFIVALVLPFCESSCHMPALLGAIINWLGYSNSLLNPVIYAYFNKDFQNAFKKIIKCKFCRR

Mus musculus [3] = assay: Analgesic activity in mouse assessed as inhibition of acetic acid-induced writhing response at 10 mg/kg, ip administered 0.5 to 1 hr before acetic acid challenge; format: functional; conditions: route intraperitoneal
Mus musculus [4] = assay: Analgesic activity in mouse assessed as inhibition of acetic acid-induced writhing response at 10 mg/kg, po administered 0.5 to 1 hr before acetic acid challenge; format: functional
[5] = Half life in human liver microsomes by LC/MS/MS; format: ADME, Microsome
[6] = Neurotoxicity in ip dosed mouse by rotarod test; format: toxicity, organism-based; conditions: in vivo
Mus musculus [7] = assay: Analgesic activity in ip dosed mouse assessed as inhibition of acetic acid-induced writhing response administered 0.5 to 1 hr before acetic acid challenge; format: functional
[8] = Neurotoxicity in po dosed mouse by rotarod test; format: toxicity, organism-based; conditions: in vivo
Mus musculus [9] = assay: Neurotoxicity in mouse at 50 mg/kg, ip by rotarod test; format: toxicity, organism-based; parameters: dose 50 mg/kg, route intraperitoneal; conditions: in vivo
[10] = target: T2, 5-hydroxytryptamine receptor 1A (Rattus norvegicus) (UniProt P19327); assay: Displacement of [3H]-8-OH-DPAT from 5HT1A receptor in rat hippocampus at 1 uM; format: tissue-based
T2 sequence (whole entry): T1 sequence (P19327 whole entry)

[11] = target: 5-hydroxytryptamine receptor 2A (Rattus norvegicus) (UniProt P14842); assay: Displacement of [3H]-ketanserin from 5HT2A receptor in rat cortical membrane at 1 uM; format: cell membranes
[12] = Half life in rat liver microsomes by LC/MS/MS; format: ADME, Microsome
Mus musculus [13] = assay: Analgesic activity in po dosed mouse assessed as inhibition of acetic acid-induced writhing response administered 0.5 to 1 hr before acetic acid challenge; format: functional
Rattus norvegicus = assay: Antiinflammatory activity in po dosed rat persistent inflammatory pain model assessed as inhibition of carrageenan-induced mechanical hyperalgesia; format: functional
Mus musculus [14] = assay: Antinociceptive activity in po dosed mouse by hot plate test; format: functional
Mus musculus [15] = assay: Antinociceptive activity in late phase po dosed mouse by formalin test; format: functional

Sequence of 5-hydroxytryptamine receptor 2A (P14842 whole entry): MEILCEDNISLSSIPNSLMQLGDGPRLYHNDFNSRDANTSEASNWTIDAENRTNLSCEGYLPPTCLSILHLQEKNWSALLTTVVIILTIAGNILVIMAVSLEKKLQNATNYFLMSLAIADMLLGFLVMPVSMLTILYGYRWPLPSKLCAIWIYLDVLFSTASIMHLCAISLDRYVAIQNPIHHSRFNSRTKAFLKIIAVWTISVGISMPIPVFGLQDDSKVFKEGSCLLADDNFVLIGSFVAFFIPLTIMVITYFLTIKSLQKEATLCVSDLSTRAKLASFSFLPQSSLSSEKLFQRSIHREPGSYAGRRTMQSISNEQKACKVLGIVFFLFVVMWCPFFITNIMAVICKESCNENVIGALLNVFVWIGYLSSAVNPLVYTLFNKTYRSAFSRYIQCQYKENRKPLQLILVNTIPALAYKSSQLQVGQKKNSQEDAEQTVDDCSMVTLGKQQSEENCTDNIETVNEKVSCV
Sequence of 5-hydroxytryptamine receptor 2A (Rattus norvegicus) (P14842 whole entry): as above

Compound: Cc1cccc(N2CCN(CCC(OC(N)=O)c3ccccc3)CC2)c1 (single isomer, unassigned)
- IC50 [1]: 92.5 nM
- IC50 [2]: 59.6 nM

Compound: O[C@@H](CCN1CCN(c2ccccc2)CC1)c1ccccc1
- IC50 [1]: 289 nM
- IC50 [2]: 495 nM
- inhibition in vivo at 10 mg/kg (Mus musculus [3]): 66.7%

Compound: NC(=O)OC(CCN1CCN(c2ccc(C(F)(F)F)cc2)CC1)c1ccccc1 (single isomer, unassigned)
- IC50 [1]: 2110 nM
- IC50 [2]: 7220 nM

Compound: NC(=O)O[C@@H](CCN1CCN(c2ccccc2)CC1)c1ccccc1
- IC50 [1]: 1020 nM
- IC50 [2]: 772 nM
- inhibition in vivo at 10 mg/kg (Mus musculus [3]): 87.8%

Compound: Cc1ccc(N2CCN(CCC(OC(N)=O)c3ccccc3)CC2)c(C)c1 (single isomer, unassigned)
- inhibition in vivo at 10 mg/kg (Mus musculus [4]): 34%

Compound: NC(=O)OC(CCN1CCN(c2ccccc2)CC1)c1ccccc1 (racemic)
- half-life [5]: 19 min
- TD50 [6]: 52.3 mg/kg
- ED50 (Mus musculus [7]): 0.49 mg/kg
- TD50 [8]: 124 mg/kg

Compound: NC(=O)OC(CCN1CCN(c2ccc(OC(F)(F)F)cc2)CC1)c1ccccc1 (single isomer, unassigned)
- inhibition in vivo at 10 mg/kg (Mus musculus [4]): 18%

Compound: Cc1ccccc1N1CCN(CCC(OC(N)=O)c2ccccc2)CC1 (single isomer, unassigned)
- IC50 [1]: 78.3 nM
- IC50 [2]: 149 nM

Compound: COc1ccc(N2CCN(CCC(OC(N)=O)c3ccccc3)CC2)c(OC)c1 (single isomer, unassigned)
- inhibition in vivo at 10 mg/kg (Mus musculus [4]): 19%

Compound: NC(=O)OC(CCN1CCN(c2ccccc2O)CC1)c1ccccc1 (single isomer, unassigned)
- inhibition in vivo at 10 mg/kg (Mus musculus [4]): 37%

Compound: COc1ccc(C(CCN2CCN(c3ccc(OC)cc3)CC2)OC(N)=O)cc1 (configuration not stated)
- inhibition in vivo at 10 mg/kg (Mus musculus [4]): 53%

Compound: NC(=O)OC(CCN1CCN(c2ccc(O)cc2)CC1)c1ccc(F)cc1 (single isomer, unassigned)
- half-life [5]: 149 min

Compound: COc1cc(OC)cc(N2CCN(CCC(OC(N)=O)c3ccccc3)CC2)c1 (single isomer, unassigned)
- inhibition in vivo at 10 mg/kg (Mus musculus [4]): 13%

Compound: COc1cccc(N2CCN(CCC(OC(N)=O)c3ccccc3)CC2)c1 (single isomer, unassigned)
- inhibition in vivo at 10 mg/kg (Mus musculus [3]): 55%

Compound: COc1ccc(N2CCN(CCC(OC(N)=O)c3ccc(Cl)c(Cl)c3)CC2)cc1 (single isomer, unassigned)
- inhibition in vivo at 10 mg/kg (Mus musculus [4]): 61%

Compound: NC(=O)OC(CCN1CCN(c2ccc(C(F)(F)F)cc2[N+](=O)[O-])CC1)c1ccccc1 (single isomer, unassigned)
- inhibition in vivo at 10 mg/kg (Mus musculus [4]): 50%

Compound: NC(=O)OC(CCN1CCN(c2ccccc2)CC1)c1ccc([N+](=O)[O-])cc1 (single isomer, unassigned)
- inhibition in vivo at 10 mg/kg (Mus musculus [4]): 91.2%
- Activity (Mus musculus [9]): Toxic
- inhibition [10]: 81.4%
- inhibition [11]: 88%
- TD50 [8]: 53.4 mg/kg
- inhibition in vivo at 10 mg/kg (Mus musculus [3]): 100%

Compound: Cc1ccc(C(CCN2CCN(c3ccccc3)CC2)OC(N)=O)cc1 (single isomer, unassigned)
- inhibition [10]: 59.6%
- inhibition [11]: 85.6%
- inhibition in vivo at 10 mg/kg (Mus musculus [3]): 100%

Compound: Cc1ccc(N2CCN(CCC(OC(N)=O)c3ccccc3)CC2)cc1 (single isomer, unassigned)
- IC50 [1]: 369 nM
- IC50 [2]: 1280 nM

Compound: NC(=O)OC(CCN1CCN(c2ccccc2)CC1)c1ccc(F)cc1 (configuration not stated)
- Activity (Mus musculus [9]): Non-toxic
- half-life [5]: 18 min
- inhibition [10]: 65.5%
- inhibition [11]: 84.7%
- TD50 [8]: 141 mg/kg
- inhibition in vivo at 10 mg/kg (Mus musculus [3]): 99%

Compound: O=C(CCN1CCN(c2ccccc2)CC1)c1ccccc1
- IC50 [1]: 1070 nM
- IC50 [2]: 47.5 nM
- inhibition in vivo at 10 mg/kg (Mus musculus [3]): 37.2%

Compound: Cc1cccc(C)c1N1CCN(CCC(OC(N)=O)c2ccccc2)CC1 (single isomer, unassigned)
- inhibition in vivo at 10 mg/kg (Mus musculus [4]): 48%

Compound: O[C@H](CCN1CCN(c2ccccc2)CC1)c1ccccc1
- IC50 [1]: 452 nM
- IC50 [2]: 174 nM
- inhibition in vivo at 10 mg/kg (Mus musculus [3]): 70.1%

Compound: COc1ccc(N2CCN(CCC(OC(N)=O)c3ccc(Cl)cc3Cl)CC2)cc1 (single isomer, unassigned)
- inhibition in vivo at 10 mg/kg (Mus musculus [4]): 16%

Compound: NC(=O)OC(CCN1CCN(c2ccc([N+](=O)[O-])cc2)CC1)c1ccc(F)cc1 (single isomer, unassigned)
- inhibition in vivo at 10 mg/kg (Mus musculus [4]): 70%
- inhibition [10]: 29.6%
- inhibition [11]: 29.6%
- TD50 [8]: 97.8 mg/kg

Compound: NC(=O)O[C@H](CCN1CCN(c2ccccc2)CC1)c1ccccc1
- half-life [5]: 62 min
- IC50 [1]: 62 nM
- ED50 (Mus musculus [7]): 0.18 mg/kg
- IC50 [2]: 534 nM
- half-life [12]: 8 min

Compound: COc1ccc(N2CCN(CCC(OC(N)=O)c3ccc(Cl)cc3)CC2)cc1 (single isomer, unassigned)
- inhibition in vivo at 10 mg/kg (Mus musculus [4]): 51%

Compound: COc1ccc(N2CCN(CCC(OC(N)=O)c3ccc(C)cc3C)CC2)cc1 (single isomer, unassigned)
- inhibition in vivo at 10 mg/kg (Mus musculus [4]): 62%

Compound: NC(=O)OC(CCN1CCN(c2ccc(F)cc2)CC1)c1ccc(F)cc1 (single isomer, unassigned)
- inhibition in vivo at 10 mg/kg (Mus musculus [4]): 52%
- inhibition [10]: 60.9%
- inhibition [11]: 93.9%

Compound: NC(=O)OC(CCN1CCN(c2ccccc2)CC1)c1cccc(Cl)c1 (single isomer, unassigned)
- inhibition in vivo at 10 mg/kg (Mus musculus [4]): 59%
- inhibition [10]: 76.4%
- inhibition [11]: 93.7%
- inhibition in vivo at 10 mg/kg (Mus musculus [3]): 100%

Compound: NC(=O)OC(CCN1CCN(c2ccccc2)CC1)c1ccc(Cl)cc1 (single isomer, unassigned)
- ED50 (Mus musculus [13]): 2.1 mg/kg
- half-life [5]: 15 min
- inhibition [10]: 64.6%
- inhibition [11]: 84.6%

Compound: CN1CC[C@]23c4c5ccc(O)c4O[C@H]2[C@@H](O)C=C[C@H]3[C@H]1C5 [MORPHINE]
- ED50 (Mus musculus [13]): 5.57 mg/kg
- ED50 (Rattus norvegicus): 0.6 mg/kg
- ED50 (Mus musculus [14]): 13.5 mg/kg
- ED50 (Mus musculus [7]): 0.96 mg/kg
- ED50 (Mus musculus [15]): 9.15 mg/kg

Compound: NC(=O)OC(CCN1CCN(c2ccccc2Cl)CC1)c1ccccc1 (single isomer, unassigned)
- IC50 [1]: > 100000 nM
- IC50 [2]: 52500 nM

Compound: NC(=O)OC(CCN1CCN(c2ccccc2)CC1)c1cccc([N+](=O)[O-])c1 (single isomer, unassigned)
- inhibition in vivo at 10 mg/kg (Mus musculus [4]): 48%
- inhibition [10]: 74.6%
- inhibition [11]: 86.4%
- inhibition in vivo at 10 mg/kg (Mus musculus [3]): 100%

Compound: CC(C)(C)c1ccc(C(CCN2CCN(c3ccccc3)CC2)OC(N)=O)cc1 (single isomer, unassigned)
- inhibition in vivo at 10 mg/kg (Mus musculus [4]): 62%
- inhibition [10]: 44.4%
- inhibition [11]: 98.8%

Compound: COc1ccc(N2CCN(CCC(OC(N)=O)c3ccc(Cl)c(C(F)(F)F)c3)CC2)cc1 (single isomer, unassigned)
- inhibition in vivo at 10 mg/kg (Mus musculus [4]): 46%

Compound: NC(=O)OC(CCN1CCN(c2ccccc2F)CC1)c1ccccc1 (single isomer, unassigned)
- TD50 [6]: 44.7 mg/kg

Compound: COc1ccc(N2CCN(CCC(OC(N)=O)c3ccc(C)c(C)c3)CC2)cc1 (single isomer, unassigned)
- inhibition in vivo at 10 mg/kg (Mus musculus [4]): 58%

Compound: COc1ccc(C(CCN2CCN(c3ccccc3)CC2)OC(N)=O)cc1 (single isomer, unassigned)
- inhibition in vivo at 10 mg/kg (Mus musculus [4]): 43%
- Activity (Mus musculus [9]): Toxic
- inhibition [10]: 67.7%
- inhibition [11]: 82%
- inhibition in vivo at 10 mg/kg (Mus musculus [3]): 100%

Compound: COc1ccc(N2CCN(CCC(OC(N)=O)c3ccccc3)CC2)cc1 (racemic)
- inhibition in vivo at 10 mg/kg (Mus musculus [4]): 72%
- half-life [5]: 124 min
- ED50 (Mus musculus [7]): 0.14 mg/kg
- IC50 [2]: 1980 nM
- TD50 [8]: 122 mg/kg

Compound: NC(=O)OC(CCN1CCN(c2ccc(Cl)c(C(F)(F)F)c2)CC1)c1ccccc1 (single isomer, unassigned)
- inhibition in vivo at 10 mg/kg (Mus musculus [4]): 52%

Compound: NC(=O)OC(CCN1CCN(c2ccc(Cl)cc2)CC1)c1ccccc1 (single isomer, unassigned)
- inhibition in vivo at 10 mg/kg (Mus musculus [3]): 52%

Reference: ChEMBL document CHEMBL2157932, “Synthesis and pharmacological evaluation of carbamic acid 1-phenyl-3-(4-phenyl-piperazine-1-yl)-propyl ester derivatives as new analgesic agents” (Bioorg Med Chem Lett, 2012)
